Measurements reported in PubChem BioAssay AID1033 (Sanford-Burnham Center for Chemical Genomics, 2008).
The source made the active and inactive calls. The rule behind the calls is not given here.

Molecular target: Chaperone protein DnaK (Escherichia coli (strain K12)) (UniProt P0A6Y8)
Assay: binders of DnaK substrate-binding domain, biophysical, NMR, chaperone (AID 1033)
Conditions: Purified DnaK SBD, NMR ligand binding

Sequence of Chaperone protein DnaK (Escherichia coli (strain K12)) (P0A6Y8 whole entry, looked up, the tested form may be a part): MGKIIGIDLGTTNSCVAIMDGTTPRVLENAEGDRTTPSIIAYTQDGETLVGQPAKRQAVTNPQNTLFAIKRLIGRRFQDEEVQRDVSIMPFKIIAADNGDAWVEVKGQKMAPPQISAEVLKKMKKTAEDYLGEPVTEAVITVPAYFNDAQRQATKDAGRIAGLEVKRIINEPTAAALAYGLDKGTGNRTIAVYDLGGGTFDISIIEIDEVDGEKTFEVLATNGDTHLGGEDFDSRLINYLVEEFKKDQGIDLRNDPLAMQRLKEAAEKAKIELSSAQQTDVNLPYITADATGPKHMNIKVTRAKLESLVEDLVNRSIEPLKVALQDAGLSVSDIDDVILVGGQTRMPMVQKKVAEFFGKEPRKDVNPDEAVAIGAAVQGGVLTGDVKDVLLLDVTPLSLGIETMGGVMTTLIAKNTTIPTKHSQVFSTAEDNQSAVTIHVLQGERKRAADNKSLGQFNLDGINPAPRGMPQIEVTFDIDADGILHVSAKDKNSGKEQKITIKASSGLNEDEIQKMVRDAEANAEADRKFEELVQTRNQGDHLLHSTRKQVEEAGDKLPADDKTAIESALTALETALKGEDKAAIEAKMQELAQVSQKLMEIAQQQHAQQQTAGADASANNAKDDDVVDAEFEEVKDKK

| SMILES | Kd |
| --- | --- |
| COC(=O)C[C@H]1C(C)(C)C(=O)[C@@H]2CC3=C4CC(=O)O[C@@H](c5ccoc5)[C@]4(C)CCC3C1(C)C2=O (stereo partly specified) | > 4 mM (inactive) |
| CS(=O)(=O)N1CCN(c2ccccc2F)CC1 | > 4 mM (inactive) |
| O=C(O)Cc1noc2ccccc12 | > 4 mM (inactive) |
| O=c1[nH]cnc2nn(-c3ccccc3)nc12 | > 4 mM (inactive) |
| Cc1nnc(SCc2ccon2)n1-c1ccccc1 | > 4 mM (inactive) |
| Cc1noc(C)c1C(=O)Nc1ccccc1-c1ccccc1 | > 4 mM (inactive) |
| Oc1ccc2c(c1)OCC1(O)Cc3cc(O)c(O)cc3C21 (stereo unspecified) | > 4 mM (inactive) |
| Brc1ccc(-c2nc(-c3ccncc3)no2)o1 | > 4 mM (inactive) |
| CCNC(CC(=O)Nc1ccc(O)cc1)C(=O)O (stereo unspecified) | > 4 mM (inactive) |
| CC(=O)Nc1nnc(-c2ccco2)o1 | > 4 mM (inactive) |
| CC(=O)Nc1cc(N2C(=O)C=CC2=O)ccc1Cl | > 4 mM (inactive) |
| Cn1c(SCC(=O)NCCO)nc2ccccc2c1=O | > 4 mM (inactive) |
| O=C(Cn1cnc2ccccc2c1=O)N1CCOCC1 | > 4 mM (inactive) |
| CCC(=O)Nc1ccccc1NC(C)=O | > 4 mM (inactive) |
| Nn1cnn2c(SCc3ccccc3)nnc12 | > 4 mM (inactive) |
| CN(C)C(=O)Oc1cccc(-c2nnco2)c1 | > 4 mM (inactive) |
| Cc1cc(N)no1 | > 4 mM (inactive) |
| Nc1ccccc1N1CCOCC1 | > 4 mM (inactive) |
| COc1ccc(NC(=O)C2CC(=O)N=C(N)S2)cc1 (stereo unspecified) | > 4 mM (inactive) |
| CC(=O)O[C@H]1C[C@@H](OC(C)=O)C(C)(C)C2C[C@@H](OC(C)=O)[C@]3(C)C([C@H](OC(C)=O)C[C@@]4(C)[C@H](c5ccoc5)OC(=O)[C@H]5O[C@]543)[C@]21C (stereo partly specified) | > 4 mM (inactive) |
| Cc1oc2nc3c(c(=O)[nH]c(=O)n3C)n2c1C | > 4 mM (inactive) |
| CS(=O)(=O)c1cccc(C(=O)Nc2nccs2)c1 | > 4 mM (inactive) |
| Cc1cc(C)cc(C(=O)N2CCC(C(N)=O)CC2)c1 | > 4 mM (inactive) |
| O=c1cc(-c2ccc(O)cc2)oc2cc(O[C@@H]3O[C@H](CO)[C@@H](O)[C@H](O)[C@H]3O[C@@H]3OC[C@](O)(CO)[C@H]3O)cc(O)c12 | > 4 mM (inactive) |

| SMILES | Kd |
| --- | --- |
| COc1ccc(N/C(N)=N\c2nc(C)cc(C)n2)cc1 | > 4 mM (inactive) |
| Cc1cc(=O)n2[nH]cnc2n1 | > 4 mM (inactive) |
| Cc1nnc2sc(-c3csc4c3CCCC4)nn12 | > 4 mM (inactive) |
| C=CCSc1[nH]c(=O)cc(C)c1C(N)=O | > 4 mM (inactive) |
| O=C(O)C12CC3CC(CC(O)(C3)C1)C2 | > 4 mM (inactive) |
| Cc1nnc(SCc2ccc(F)cc2)s1 | > 4 mM (inactive) |
| NC(=O)CSc1nc2[nH]ncc2c(=O)[nH]1 | > 4 mM (inactive) |
| O=C(c1ccncc1)c1ccc(Br)cc1 | > 4 mM (inactive) |
| CCOC(=O)c1c(C)cc(OC)cc1O | > 4 mM (inactive) |
| C=CC(=O)N1CC2CC(C1)c1cccc(=O)n1C2 (stereo unspecified) | > 4 mM (inactive) |
| O=C(O)CN1C(=O)c2cccc([N+](=O)[O-])c2C1=O | > 4 mM (inactive) |
| CC(=O)Nc1cccc(-c2nc3ccccc3c(=O)o2)c1 | > 4 mM (inactive) |
| O=C(O)CCC(=O)Nc1ccccc1F | > 4 mM (inactive) |
| COc1ccc(C(O)c2nccn2C)cc1 (stereo unspecified) | > 4 mM (inactive) |
| O=C1CCC(c2cccs2)=NN1 | > 4 mM (inactive) |
| Cc1ccccc1NC(=S)NCCO | > 4 mM (inactive) |
| O=C(O)CCC1=C2c3ccccc3CCN2C(=O)CC1 | > 4 mM (inactive) |
| COc1ccc(-c2coc3cc(O)ccc3c2=O)cc1 | > 4 mM (inactive) |
| C=CCc1ccc(O)c(OC)c1 | > 4 mM (inactive) |
| CC(=O)O[C@H]1C[C@@H](OC(C)=O)C(C)(C)C2C[C@@H](OC(C)=O)[C@@]3(C)C4=CC(=O)O[C@@H](c5ccoc5)[C@]4(C)CCC3[C@]21C (stereo partly specified) | > 4 mM (inactive) |
| O=C(COc1ccccc1Cl)N1CCCC1 | > 4 mM (inactive) |
| Cc1cc(C(=O)N2CCCCCC2)cs1 | > 4 mM (inactive) |
| CC(=O)NCS(=O)(=O)c1ccc(C)cc1 | > 4 mM (inactive) |
| Cc1nn(C)c(C)c1C(=O)O | > 4 mM (inactive) |

| SMILES | Kd |
| --- | --- |
| Oc1ccc(-n2ccnc2)cc1 | > 4 mM (inactive) |
| O=[N+]([O-])c1ccc2c(c1)N([O-])C1(CCCCC1)[N+]2=O | > 4 mM (inactive) |
| Cc1noc(C)c1C(=O)Nc1ccc2c(c1)CCC2 | > 4 mM (inactive) |
| Cc1ccccc1-n1c(-c2cccnc2)n[nH]c1=S | > 4 mM (inactive) |
| Cc1ccccc1NC(=O)CSc1ccnc(=O)[nH]1 | > 4 mM (inactive) |
| O=C(Nc1cccc2cccnc12)c1cccnc1 | > 4 mM (inactive) |
| O=C1CN(C(=O)CN2CCOCC2)c2ccccc2N1 | > 4 mM (inactive) |
| Cc1scc(C(=O)Nc2ccon2)c1-c1ccccc1 | > 4 mM (inactive) |
| Cc1ccc2cc(CO)ccc2n1 | > 4 mM (inactive) |
| Nc1cccc(OC(F)(F)F)c1 | > 4 mM (inactive) |
| C=CCCCCCCCCCCCC(O)CC(O)COC(C)=O (stereo unspecified) | > 4 mM (inactive) |
| CS(=O)(=O)c1ccccc1C(=O)Nc1nccs1 | > 4 mM (inactive) |
| Cc1[nH]ccc2c1[nH]c1cc(=O)ccc12 | > 4 mM (inactive) |
| CCCS(=O)(=O)N1CCN(c2ccccc2F)CC1 | > 4 mM (inactive) |
| C/C=C/COc1nc2c(c(=O)n(C)c(=O)n2C)n1C | > 4 mM (inactive) |
| CC(C)(C)NC(=O)N1CCC(C(=O)O)CC1 | > 4 mM (inactive) |
| O=C(O[C@@H]1Cc2c(O)cc(O)cc2O[C@@H]1c1cc(O)c(O)c(O)c1-c1c([C@H]2Oc3cc(O)cc(O)c3C[C@H]2O)cc(O)c(O)c1O)c1cc(O)c(O)c(O)c1 | > 4 mM (inactive) |
| NC(=O)c1cc(Cl)c(C(N)=O)cc1Cl | > 4 mM (inactive) |
| CCc1cc(=O)[nH]c(SCC(=O)NCCOC)n1 | > 4 mM (inactive) |
| CC1(O)CC2C(CC1O)C2(C)C (stereo unspecified) | > 4 mM (inactive) |
| Cc1ncc(C[n+]2csc3ccccc32)c(N)n1 | > 4 mM (inactive) |
| O=C(Nn1cnnc1)c1cccc(C(F)(F)F)c1 | > 4 mM (inactive) |
| OCc1csc(-c2cccs2)n1 | > 4 mM (inactive) |
| O=C(O)c1ccc2c(c1)OCCCO2 | > 4 mM (inactive) |

| SMILES | Kd |
| --- | --- |
| O=C1CSC(c2ccc3c(c2)OCO3)N1 (stereo unspecified) | > 4 mM (inactive) |
| Nc1nc2n(c1C(=O)c1ccccc1)CCC2 | > 4 mM (inactive) |
| O=C(NC(=S)NN1CCOCC1)c1cccs1 | > 4 mM (inactive) |
| CN(C)S(=O)(=O)c1ccc(NC=O)cc1 | > 4 mM (inactive) |
| COc1cccc(-c2cc(=O)c3cc(OC)ccc3o2)c1 | > 4 mM (inactive) |
| O=C1c2cccc3cc(S(=O)(=O)O)cc(c23)C(=O)N1O | > 4 mM (inactive) |
| Cc1c(/C=N/O)cnn1C | > 4 mM (inactive) |
| O=C(c1cc2ccccc2o1)N1CCCCCC1 | > 4 mM (inactive) |
| COc1cc2c(cc1OC)[C@@H]1C(=O)c3ccc4oc(C(C)C)cc4c3O[C@@H]1CO2 | > 4 mM (inactive) |
| COC(=O)c1oc2ccc(Cl)cc2c1NC(C)=O | > 4 mM (inactive) |
| Cc1ccc2nc(SCC(=O)O)nc(C)c2c1 | > 4 mM (inactive) |
| CC(=O)CC1CCCCN1 (stereo unspecified) | > 4 mM (inactive) |
| Cc1nn(C)c2sc(CO)cc12 | > 4 mM (inactive) |
| COc1c(O)cc2c(-c3ccccc3)cc(=O)oc2c1OC | > 4 mM (inactive) |
| Nn1c(CN2CCCCC2)nc2ccccc2c1=O | > 4 mM (inactive) |
| COC(=O)C[C@H]1C2(C)CC34OC5(C)O[C@@]6([C@H](OC)C(OC(=O)C(C)C)[C@]7(C)C(/C(=C(/OC)C(C)C)C(=O)O[C@H]7c7ccoc7)[C@@]6(O5)[C@H](OC)[C@@]3(OC)C2OC(C)=O)[C@]14C (stereo partly specified) | > 4 mM (inactive) |
| O=C(Nc1ccccc1[N+](=O)[O-])c1ccc(=O)[nH]n1 | > 4 mM (inactive) |
| O=c1ccc2ccc(O)cc2o1 | > 4 mM (inactive) |
| O=c1/c(=C\c2cccnc2)sc2nc3ccccc3n12 | > 4 mM (inactive) |
| CN1C2C[C@H](OC(=O)[C@H](CO)c3ccccc3)C[C@H]1[C@@H](O)C2 | > 4 mM (inactive) |
| Cc1oc(-c2ccccc2)cc1C(N)=O | > 4 mM (inactive) |
| c1ccc(C[N+]23CCN(CC2)CC3)cc1 | > 4 mM (inactive) |
| NC(N)=NOCC[C@H](N)C(=O)O | > 4 mM (inactive) |
| COc1ccc(-c2ccc(SCC(N)=O)nn2)cc1 | > 4 mM (inactive) |

| SMILES | Kd |
| --- | --- |
| Nc1nnc(SCc2ccc3c(c2)OCO3)s1 | > 4 mM (inactive) |
| NC(=NCCC[C@H](N)C(=O)O)NC(CCC(=O)O)C(=O)O (stereo partly specified) | > 4 mM (inactive) |
| C[C@]12CCC3C(CC[C@]4(O)C[C@@H](O)CC[C@]34C=O)[C@@]1(O)CCC2C1=CC(=O)OC1 (stereo partly specified) | > 4 mM (inactive) |
| CC(C)c1ccc2c(c1O)CC[C@H]1C3=C(CC[C@]21C)C(=O)OC3 | > 4 mM (inactive) |
| O=C(CN1CCOCC1)Nc1nccs1 | > 4 mM (inactive) |
| Cc1cc(=O)cc(C)n1-c1ccccc1N1CCOCC1 | > 4 mM (inactive) |
| CCCCN1C(=O)N(C)C2NC(=O)NC21 (stereo unspecified) | > 4 mM (inactive) |
| OCc1ccc(-n2cncn2)cc1 | > 4 mM (inactive) |
| OC1CNCc2cc3c(cc21)OCCO3 (stereo unspecified) | > 4 mM (inactive) |
| Cc1noc(C)c1C(=O)NCc1ccco1 | > 4 mM (inactive) |
| CC(=O)Nc1ccc(NC(=O)c2ccncc2)cc1 | > 4 mM (inactive) |
| CCOC(=O)c1cnc2sccn2c1=O | > 4 mM (inactive) |
| CCCCCC/C=C\CCCCCCCc1cccc(O)c1C(=O)O | > 4 mM (inactive) |
| CC(C)C(C)/C=C/C(C)C1CCC2C3=CC=C4CC(O)CCC4(C)C3CCC21C (stereo unspecified) | > 4 mM (inactive) |
| NC(=O)c1sc2ccccc2c1Cl | > 4 mM (inactive) |
| Cc1occc(=O)c1O | > 4 mM (inactive) |
| COc1ccc2c(c1)O[C@@H]1COc3cc(OC)c(OC)cc3[C@@H]1C2=O | > 4 mM (inactive) |
| CN1CCN(S(=O)(=O)c2ccc(=O)[nH]c2)CC1 | > 4 mM (inactive) |
| Cc1occc1C(=O)NC1CCN(C)CC1 | > 4 mM (inactive) |
| Nc1nnc(SCc2cccnc2)s1 | > 4 mM (inactive) |
